Test results: PubChem BioAssay (NCI)
Values joined by “and” are separate entries in the source; they are usually repeats but may differ in a detail not shown here. Equal values may be shown once.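 1) Cells in 96-well plates. 2) Compound, 48 h, 5 concentrations. 3) Linear interpolation between surrounding doses. 4) Unreached endpoint = highest concentration. GI50 marks 50% less growth. The concentration for full growth arrest is given as TGI.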

These compounds were tested on MDA-MB-468 breast (assay: growth of human tumour cells (NCI), 48 h).

| SMILES | GI50 | TGI |
| --- | --- | --- |
| CCCCCC/C=C\CCCCCCCCCc1cc(O)cc(OC)c1O | 0.296 µM | 0.828 µM |
| COc1cnc2c(c1)C(=O)c1c-2n(CCCNCC2CC2)c(=O)c2cc(F)ccc12 | 0.316 µM | 0.904 µM |
| Cn1ccnc1C(=O)/C=C/c1ccc(C(=O)Nc2ccccc2F)cc1 | 2.49 µM | 8.3 µM |
| COc1ccc(C(=O)C2C(C#N)C(C#N)C3C=Cc4ccccc4N32)cc1 (stereo unspecified) | 2.31 µM | > 100 µM |
| O=C1N=C(c2c(-c3[nH]c(=O)c4ccc(Br)cc4c3O)c(O)c3ccccc3c2O)C(=O)c2cc(Br)ccc21 | 0.412 µM | 1.49 µM |
| CS(C)(=O)=O | > 100000 µM | > 100000 µM |
| c1cc2ccc3cc2cc1CNCCN1CCNCc2ccc4ccc(cc4c2)CNCCN(CCNC3)CCNCc2ccc3ccc(cc3c2)CNCC1 | 2.01 µM | 4 µM |
| Nc1c(C(=O)Nc2ccccc2)sc2nc3c(cc12)C(O)CCC3 (stereo unspecified) | 0.29 µM | > 100 µM |
| CC(=O)Nc1nc(C)c(-c2csc(Nc3ccccc3)n2)s1 | 1.74 µM | 9.01 µM |
| CO/N=C/C=C\C(=O)N/C=C/C[C@H]1/C=C/[C@H](O)/C=C\C=C\c2cccc(O)c2C(=O)O1 | 0.286 µM and 0.187 µM | 29.9 µM and 17.5 µM |
| COC(=O)N1c2ccc3c(nc(Cc4ccccc4)n3[C@H]3CCC[C@H](C(=O)O)C3)c2CC[C@@H]1C | 3.82 µM | > 100 µM |
| CCCOc1cc2c(cc1O)CC[C@@H]1[C@@H]2CC[C@]2(C)[C@@H](O)CC[C@@H]12 | 2.8 µM | 16.7 µM |
| CCC(=O)Oc1cc(/C=C/C(=O)O[C@H]2C[C@H]3CN4CCc5c([nH]c6cc(OC)ccc56)[C@@H]4C[C@@H]3[C@@H](C(=O)OC)[C@@H]2OC)ccc1OC | 4.76 µM | 33.3 µM |
| O=c1c2sc3ccccc3c2nnn1-c1ccc(F)c(Cl)c1 | 12.8 µM | 99.5 µM |
| O=C(N/N=C\c1cc(Cl)ccc1O)c1ccncc1 | 1.83 µM | 9.82 µM |
| O=C(O)c1cc2cc(OCc3ccccc3)ccc2[nH]1 | > 100 µM | > 100 µM |
| COc1ccc(C(=O)/C=C/c2ccc(OCc3ccc(Cl)cc3)cc2)cc1OC | 40.6 µM | 271 µM |
| COc1ccc2[nH]c(C(=O)N3CCN(C(=O)OCc4ccc5c(Br)cc(Br)c(O)c5n4)CC3)cc2c1 | 0.209 µM | 0.506 µM |
| Cc1ccncc1N1CCN(c2ccnc(Cl)c2)C1=O | > 100 µM | > 100 µM |
| Cc1ccc2nc3ccccc3c(NCc3ccccc3)c2c1 | 1.52 µM | 5.54 µM |
| COc1cc(C(=O)/C=C/c2cc(-c3cc(OC)c(OC)c(OC)c3)n[nH]2)cc(OC)c1OC | 1.15 µM | 2.48 µM |
| O=c1c2c3c(sc2n2c(CCl)nnc2n1Cc1ccccc1)CCCC3 | 1.77 µM | 3.72 µM |

| SMILES | GI50 | TGI |
| --- | --- | --- |
| O=c1cc(N2CCOCC2)oc2c(-c3ccc4c(c3)OCCO4)csc12 | 0.629 µM | 3.75 µM |
| COc1ccc(NC(=O)c2sc3nc(C)c(C(=O)/C=C/c4ccccc4)cc3c2N)cc1 | 0.92 µM | 2.03 µM |
| N#CCCN1C/C(=C/c2ccccc2)C(=O)/C(=C/c2ccccc2)C1 | 1.68 µM | 3.78 µM |
| O=C(CC1(O)C(=O)N(Cc2ccccc2)c2ccc(Br)cc21)c1ccc(C(=O)NCC2CCC3(CC2)OOC2(CCCCC2)OO3)cc1 (stereo unspecified) | 2.01 µM | 6.72 µM |
| CC1=C2[C@H]3OC(=O)[C@@H](C)[C@@H]3CC[C@@]2(C)C=CC1=O | > 100 µM | > 100 µM |
| COC(=O)c1ccc([C@H]2c3[nH]c4ccccc4c3C[C@H](C(=O)OC)N2C(=O)CCl)cc1 | 0.472 µM | 1.9 µM |
| CCCCCCCCNC(=O)c1ccc(Cn2c(CCCC)nc3c(N)nc4ccccc4c32)cc1 | 1.38 µM | 3.06 µM |
| NC(=O)[C@@H](CCC(F)(F)F)N(Cc1ccc(-c2ncon2)cc1F)S(=O)(=O)c1ccc(Cl)cc1 | 7.26 µM | > 100 µM |
| Cn1cc(-c2ccc(-c3cn(C)c4ncccc34)[nH]2)c2cccnc21 | 1.79 µM | 5.22 µM |
| COc1ccc2nc(NC(=O)COc3cc(/C=C\c4cc(OC)c(OC)c(OC)c4)ccc3OC)sc2c1 | 2.29 µM | 8.37 µM |
| C=CCCCC(=O)CCC(=O)OCC1O[C@@H](O[C@@H]2C(O)[C@@H](OC(C)=O)C(C)O[C@H]2O[C@H](CC=C)CCCCC)C(O)[C@@H](OC(=O)/C(C)=C/C)[C@@H]1OC(=O)/C=C/c1ccccc1 (stereo partly specified) | 0.0321 µM | 1.22 µM |
| CCCCCCCCCCCCCCNc1nc(C(=O)OCC)ncc1-c1ccc(C(F)(F)F)cc1 | > 100 µM | > 100 µM |
| COc1ccc2oc(=O)cc(C3c4ccc([nH]4)C(c4cc(=O)oc5ccc(OC)cc45)c4ccc([nH]4)C(c4cc(=O)oc5ccc(OC)cc45)c4ccc([nH]4)C(c4cc(=O)oc5ccc(OC)cc45)c4ccc3[nH]4)c2c1 (stereo unspecified) | 0.401 µM | 1.91 µM |
| CCCCCCC/C(=N\N=C(N)N)c1ccc(O)cc1 | 1.3 µM | 2.6 µM |
| Clc1ccc(CN2COc3c(ccc4cccnc34)C2)cc1Cl | 0.543 µM | 2.16 µM |
| O=C(Nc1ccc(-n2ccc3c(NC(=O)c4ccccc4)nccc32)cc1)c1cccc(C(F)(F)F)c1 | 1.2 µM | 7.3 µM |
| N#Cc1c(-c2ccc(Cl)cc2)cc(-c2cc(O)ccc2O)nc1N | 0.769 µM | 3.72 µM |
| COc1ccc(C(=O)NCCNc2nccc(-c3c(-c4ccc(F)cc4)nc4sccn34)n2)cc1 | 4.74 µM | 41 µM |
| NCCOc1ncccc1/C=C1\C2C=CC=CC2C2C=CC(F)=CC12 (stereo unspecified) | 0.483 µM | 2.01 µM |
| Cc1ccc(S(=O)(=O)Oc2ccccc2-c2ccccc2)cc1 | 0.866 µM | 4.22 µM |
| O=C(CCl)Nc1ccc2c(Nc3cc(O)ccc3Cl)ncnc2c1 | 2.29 µM | 7.68 µM |
